In US4900727A, “4H-1-benzopyran-4-one compounds which have anti-inflamatory or immunodulating action” (Hoechst Aktiengesellschaft, priority 1986, dated 1990):
Where a name gives a salt, the structure may show the parent alone. Read-outs that look alike come from different tables or passages of the source.

How the values were obtained:
[1] = test system: carrageenin-induced paw edema in rats; assay: Systemic anti-inflammatory action on carrageenin-induced paw edema in rats; type: in vivo, male Charles Foster rats; conditions: decrease in paw volume, 3 and 6 hours after carrageenin, from dose/response curve
Method: Male Charles Foster rats (120-150 g) were fasted for 18 hours, with water ad libitum. The test compound dissolved in distilled water was administered orally. The control group received distilled water. 0/05 ml of 0.5% carrageenin suspension was injected subcutaneously into the plantar region of the left hind paw. Using a Maclab differential volume meter, the paw volume was determined before the carrageenin injection and 3 and 6 hours after the injection. The percentage decrease in paw volume was calculated by the following equation: [formula] The ED50 value was calculated from the dose/response curve. Six animals were used for each group. The results with representative compounds according to the invention and their salts are listed in Table 4, the substituents relating to the following formula Ia: [drawing 11]

[2] = test system: reverse passive Arthus reaction (RPA) in rats; assay: Reverse passive Arthus reaction (RPA) in rats; type: in vivo, Charles Foster rats of both sexes; conditions: one hour before RPA, edema vs untreated control; for % inhibition: hydrochloride
Method: Charles Foster rats of both sexes, weighing 150-180 g, were sorted into groups of six animals each. 24 hours before the initiation of the RPA, the rats were shaved from the mid-dorsal region and fasted overnight. The test compounds were administered orally one hour before inducing the Arthus reaction. The RPA reaction was induced by intradermal injection of 0.1 ml of appropriately diluted rabbit anti-BSA serum. Immediately after the intradermal exposure, each rat received 0.5 ml of 0.4% bovine serum albumin intraveneously. Four hours after the intradermal challenge, each group of animals was killed by cervical dislocation. The full thickness of the skin was removed from the back of each animal, and a 12 mm diameter disk was punched out with a metal punch from the site of the antiserum injection. The wet weight of each skin site was determined as soon as possible. The edema caused by the RPA was measured as the difference (expressed in mg) between the wet weight of the site injected with antibody and that injected with normal rabbit serum. The results are expressed as the percentage inhibition or potentiation of the edema by the compound as compared with the edema induced in the untreated control animals.

[3] = Rattus norvegicus, po, read-out: ED50
[4] = Rattus norvegicus, po, 4 h, dose 1.25 mg/kg p.o.
[5] = Rattus norvegicus, po, 4 h, dose 2.5 mg/kg p.o.
[6] = Rattus norvegicus, po, 4 h, dose 5.0 mg/kg p.o.
[7] = Rattus norvegicus, po, 4 h, dose 10.0 mg/kg p.o.
[8] = Rattus norvegicus, po, 4 h, dose 20.0 mg/kg p.o.

CCc1cc(=O)c2c(O)cc(O)c(C3CCN(C)CC3O)c2o1 (mixture of isomers) [(±) C2 H5 H CH3 HCl.1.5 H2 O, cis-5,7-Dihydroxy-2-ethyl-8-[4'-(3'-hydroxy-1'-methyl)-piperidinyl]-4H-1-benzopyran-4-one hydrochloride]
ED50 [1, 3]: 10.5 mg/kg | inhibition in vivo at 1.25 mg/kg [2, 4]: 16% | inhibition in vivo at 2.5 mg/kg [2, 5]: 34.3% | inhibition in vivo at 5 mg/kg [2, 6]: 41.6% | inhibition in vivo at 10 mg/kg [2, 7]: 43.6% | inhibition in vivo at 20 mg/kg [2, 8]: 77.1%

CCCc1cc(=O)c2c(O)cc(O)c(C3CCN(C)CC3O)c2o1 (mixture of isomers) [(±) n-C3 H7 H CH3 HCl.H2 O, cis-5,7-Dihydroxy-2-n-propyl-8-[4'-(3'-hydroxy-1'-methyl)-piperidinyl]-4H-1-benzopyran-4-one hydrochloride]
ED50 [1, 3]: 6.8 mg/kg | inhibition in vivo at 1.25 mg/kg [2, 4]: 26% | inhibition in vivo at 2.5 mg/kg [2, 5]: 32% | inhibition in vivo at 5 mg/kg [2, 6]: 44% | inhibition in vivo at 10 mg/kg [2, 7]: 55% | inhibition in vivo at 20 mg/kg [2, 8]: 65%

CN1CC[C@H](c2c(O)cc(O)c3c(=O)cc(-c4ccc(N)cc4)oc23)[C@H](O)C1 (racemic) [(±) 4-Aminophenyl H H 2HCl, 2 H2 O, cis-(±)-2-(4-aminophenyl)-5,7-dihydroxy-8-[4'-(3'-hydroxy-1'-methyl)-piperidinyl]-4H-1-benzopyran-4-one]
ED50 ([1]; p.o.): 7.4 mg/kg

CN1CC[C@H](c2c(O)cc(O)c3c(=O)cc(-c4ccc(Cl)cc4)oc23)[C@H](O)C1 (racemic) [(±) 4-chlorophenyl H H HCl, 1.5 H2 O, cis-(±)-2-(4-chlorophenyl)-5,7-dihydroxy-8-[4'-(3'-hydroxy-1'-methyl)-piperidinyl]-4H-1-benzopyran-4-one]
ED50 ([1]; p.o.): 7.0 mg/kg

CN1CC[C@H](c2c(O)cc(O)c3c(=O)cc(-c4ccccn4)oc23)[C@H](O)C1 (relative stereo) [(±) 2-Pyridyl H CH3 HCl.1.5 H2 O, cis-(±)-5,7-dihydroxy-2-(2-pyridyl)-8-[4'-(3'-hydroxy-1'-methyl)-piperidinyl]-4H-1-benzopyran-4-one]
ED50 [1, 3]: 5.7 mg/kg | inhibition in vivo at 1.25 mg/kg [2, 4]: 0% | inhibition in vivo at 2.5 mg/kg [2, 5]: 12% | inhibition in vivo at 5 mg/kg [2, 6]: 43% | inhibition in vivo at 10 mg/kg [2, 7]: 90% | inhibition in vivo at 20 mg/kg [2, 8]: 90%

Cc1cc(=O)c2c(O)cc(O)c([C@H]3CCN(C)C[C@H]3O)c2o1 (relative stereo) [(±) CH3 H CH3 HCl, cis-5,7-Dihydroxy-2-methyl-8-[4'-(3'-hydroxy-1'-methyl)-piperidinyl]-4H-1-benzopyran-4-one hydrochloride]
ED50 [1, 3]: 12.5 mg/kg | inhibition in vivo at 1.25 mg/kg [2, 4]: 28.8% | inhibition in vivo at 2.5 mg/kg [2, 5]: 31.8% | inhibition in vivo at 5 mg/kg [2, 6]: 29.8% | inhibition in vivo at 10 mg/kg [2, 7]: 35.8% | inhibition in vivo at 20 mg/kg [2, 8]: 39.2%

CN1CC[C@H](c2c(O)cc(O)c3c(=O)cc(-c4ccccc4)oc23)[C@H](O)C1 (relative stereo) [(±) Phenyl H CH3 HCl.2H2 O, cis-(±)-5,7-dihydroxy-2-phenyl-8-[4'-(3'-hydroxy-1'-methyl)-piperidinyl]-4H-1-benzopyran-4-one]
ED50 [1, 3]: 5.7 mg/kg | inhibition in vivo at 1.25 mg/kg [2, 4]: 57.5% | inhibition in vivo at 2.5 mg/kg [2, 5]: 55.6% | inhibition in vivo at 5 mg/kg [2, 6]: 68.1% | inhibition in vivo at 10 mg/kg [2, 7]: 90.6% | inhibition in vivo at 20 mg/kg [2, 8]: 95.7%

CN1CC[C@H](c2c(O)cc(O)c3c(=O)cc(-c4ccccc4Cl)oc23)[C@H](O)C1 (relative stereo) [(±) o-Chlorophenyl H CH3 HCl.H2 O, cis-(±)-2-(2-chlorophenyl)-5,7-dihydroxy-8-[4'-3'-hydroxy-1'-methyl)-piperidinyl]-4H-benzopyran-4-one]
ED50 [1, 3]: 2.7 mg/kg | inhibition in vivo at 1 mg/kg ([2]; Rattus norvegicus, po, 4 h, dose 1.0 mg/kg p.o.): 37% | inhibition in vivo at 2 mg/kg ([2]; Rattus norvegicus, po, 4 h, dose 2.0 mg/kg p.o.): 60% | inhibition in vivo at 4 mg/kg ([2]; Rattus norvegicus, po, 4 h, dose 4.0 mg/kg p.o.): 80%

CN1CC[C@H](c2c(O)cc(O)c3c(=O)cc(-c4ccccc4F)oc23)[C@H](O)C1 (relative stereo) [(±) o-Fluorophenyl H CH3 HCl.2H2 O, cis-(±)-5,7-dihydroxyl-2-(2-fluorophenyl)-8-[4'-(3'-hydroxy-1'-methyl)-piperidinyl]-4H-1-benzopyran-4-one]
ED50 [1, 3]: 7.6 mg/kg | inhibition in vivo at 1.25 mg/kg [2, 4]: 0% | inhibition in vivo at 2.5 mg/kg [2, 5]: 11.5% | inhibition in vivo at 5 mg/kg [2, 6]: 52.7%

CN1CC[C@H](c2c(O)cc(O)c3c(=O)cc(-c4ccc(F)cc4)oc23)[C@H](O)C1 (relative stereo) [(±) p-Fluorophenyl H CH3 HCl.H2 O, cis-(±)-5,7-dihydroxy-2-(4-fluorophenyl)-8-[4'-(3'-hydroxy-1'-methyl)-piperidinyl]-4H-1-benzopyran-4-one]
ED50 [1, 3]: 7.4 mg/kg | inhibition in vivo at 1.25 mg/kg [2, 4]: 24.4% | inhibition in vivo at 2.5 mg/kg [2, 5]: 37.4% | inhibition in vivo at 5 mg/kg [2, 6]: 61.5% | inhibition in vivo at 10 mg/kg [2, 7]: 90% | inhibition in vivo at 20 mg/kg [2, 8]: 86.2%

CN1CC[C@H](c2c(O)cc(O)c3c(=O)cc(-c4ccc(Cl)cc4Cl)oc23)[C@H](O)C1 (relative stereo) [cis-(±)-2-(2,4-dichlorophenyl)-5,7-dihydroxy-8-[4'-(3'-hydroxy-1'-methyl)-piperidinyl]-4H-1-benzopyran-4-one]
ED50 [1, 3]: 5.7 mg/kg | inhibition in vivo at 1.25 mg/kg [2, 4]: 0% | inhibition in vivo at 2.5 mg/kg [2, 5]: 41.7% | inhibition in vivo at 5 mg/kg [2, 6]: 57.2% | inhibition in vivo at 10 mg/kg [2, 7]: 49.5% | inhibition in vivo at 20 mg/kg [2, 8]: 76.1%

Cc1cc(=O)c2c(O)cc(O)c([C@H]3CCN(C)C[C@H]3O)c2o1 (single isomer, unassigned) [(+) CH3 H CH3 HCl, (+)-cis-5,7-Dihydroxy-2-methyl-8-[4'-(3'-hydroxy-1'-methyl)-piperidinyl]-4H-1-benzopyran-4-one hydrochloride]
ED50 [1, 3]: 9.4 mg/kg | inhibition in vivo at 1.25 mg/kg [2, 4]: 40.5% | inhibition in vivo at 2.5 mg/kg [2, 5]: 48.8% | inhibition in vivo at 5 mg/kg [2, 6]: 57.1% | inhibition in vivo at 10 mg/kg [2, 7]: 50.4% | % inhibition ([2]; dose 20.0 mg/kg p.o., 20 mg/kg): 43.24%

CN1CC[C@H](c2c(O)cc(O)c3c(=O)cc(-c4ccccc4Cl)oc23)[C@H](O)C1 (single isomer, unassigned) [(-) 2-Chlorophenyl H CH3 HCl.1,5 H2 O, cis-(-)-2-(2-chlorophenyl)-5,7-dihydroxy-8-[4'-(3'-hydroxy-1'-methyl)-piperidinyl]-4H-1-benzopyran-4-one]
ED50 [1, 3]: 2.4 mg/kg | inhibition in vivo at 1.25 mg/kg [2, 4]: 34% | inhibition in vivo at 2.5 mg/kg [2, 5]: 48.8% | inhibition in vivo at 5 mg/kg [2, 6]: 70% | inhibition in vivo at 10 mg/kg [2, 7]: 98.8%

Cc1cc(=O)c2c(O)cc(O)c([C@H]3CCN(C)C[C@H]3O)c2o1 (single isomer, unassigned) [(-) CH3 H CH3 HCl, (-)-cis-5,7-Dihydroxy-2-methyl-8-[4'-(3'-hydroxy-1'-methyl)-piperidinyl]-4H-1-benzopyran-4-one hydrochloride]
ED50 ([1]; p.o., hydrochloride): 9.0 mg/kg | % inhibition ([2]; dose 1.25 mg/kg p.o., 1.25 mg/kg): 40.31% | % inhibition ([2]; dose 2.5 mg/kg p.o., 2.5 mg/kg): 39.11% | % inhibition ([2]; dose 5.0 mg/kg p.o., 5 mg/kg): 40.13% | % inhibition ([2]; dose 10.0 mg/kg p.o., 10 mg/kg): 45.17% | % inhibition ([2]; dose 20.0 mg/kg p.o., 20 mg/kg): 64.73%

CN1CC[C@H](c2c(O)cc(O)c3c(=O)cc(-c4ccccc4)oc23)[C@H](O)C1 (single isomer, unassigned) [(-) Phenyl H CH3 HCl.1/2H2 O, cis-(-)-5,7-dihydroxy-2-phenyl-8-[4'-(3'-hydroxy-1'-methyl)-piperidinyl]-4H-1-benzopyran-4-one]
ED50 [1, 3]: 1.3 mg/kg | inhibition in vivo at 2.5 mg/kg [2, 5]: 26.2% | inhibition in vivo at 5 mg/kg [2, 6]: 64.5% | inhibition in vivo at 10 mg/kg [2, 7]: 92.2%

Cc1cc(=O)c2c(O)cc(O)c(C3CCN(CC4CC4)CC3O)c2o1 (single isomer, unassigned; (-)) [(-) CH3 H [drawing 12] HCl.H2 O, cis-(-)-5,7-Dihydroxy-2-methyl-8-[4'-(1'-cyclopropylmethyl-3'-hydroxy)-piperidinyl]-4H-1-benzopyran-4-one hydrochloride]
ED50 [1, 3]: 10 mg/kg | inhibition in vivo at 2.5 mg/kg [2, 5]: 23% | inhibition in vivo at 5 mg/kg [2, 6]: 49.7% | inhibition in vivo at 20 mg/kg [2, 8]: 74%
